Data on one molecule can be found in patent US20150071918A1, “PEPTIDES FOR THE TREATMENT OF CANCER” (H. LEE MOFFITT CANCER CENTER AND RESEARCH INSTITUTE, INC., priority 2012, published 2015).

Entries after “also recorded” stand apart in the source; their conditions may differ. *1 amine or outer side, *2 acyl side, *3 side chain or, on linkers, in order; H or OH if unused. Where a SMILES comes first, the peptide text is derived from it. Bridges are numbered along the chain shown (N, C = ends). [ ]: non-standard residue; d: D form. The star is where a group is joined. dProlinol(O-CH2CO) = O=C(COC[C@H]1CCCN1[*:1])[*:2]; N(2-Aminoethyl)Gly = O=C(CN(CCN[*:3])[*:1])[*:2]; Nle = CCCC[C@H](N)C(=O)O; Ms = CS(=O)(=O)*

Series [1] in a line: Weight of mice and overt signs of toxicity under peptide injection. It is filed as in vivo. Particulars: mice treated with cyclized HYD1. The method, then:
FIG. 37 is a graph showing the effect of cyclized HYD1 (MTI-101) injection on the weight of mice.
FIG. 49. Cyclic HYD1 (MTI-101) was dosed daily at 8 mpk for the first week and then every other day for 4 weeks. The mice were bled weekly to measure paraprotein as a surrogate for tumor burden. […] Three of five vehicle-treated control animals had died by 35 days which contributes to the large SD.

Series [2] concerns CD138 cells from newly diagnosed or relapsed patients. Kind of series: Cell death in CD138 cells enriched from bone marrow aspirates of myeloma patients, annexin V and FACS, 24 hours. It is filed as cell-based, human. Particulars: 10 μM MTI-101, 24 hours. The method, then:
FIGS. 60A-60D. CD138 cells were enriched from the bone marrow aspirates of consented newly diagnosed or relapsed patients and were treated with 10 μM MTI-101, 10 μM Chloroquine or 10 nM Bortezomib or the combination of both agents. Following 24 hours of drug treatment, dell death was measured by annexin V staining and FACS analysis.

For series [3], the system named is PC9 and HCC4006 cells (activating EGFR mutations). Kind of series: MTT survival, combination index with EGFR inhibitor, 72 hours. The series is classed as cell-based. Particulars: PC9 or HCC4006 cells. The protocol: FIG. 68. MTI-101 and EGFR inhibitors are synergistic in cell lines with activating EGFR mutations. Cell lines with activating EGFR mutations (PC9 and HCC4006) were treated with varying concentrations of erlotinib or MTI-101 (also referred to as HM-27) for 72 hours and survival was assayed by MTT analysis. Generated data were used to calculate combination index (CI).
(§1) FIG. 69. MTI-101 plus EGFR inhibitors are synergistic in lung cancer cell lines with EGFR activating mutations, and MTI-101 plus MEK inhibitors are synergistic in cell lines arboring activating RAS or BRAFF mutations. Values indicate average calculated combination index (CI). Additive (CI=1), synergism (CI<1) and, antagonism (CI>1). […] Cell viability was measured by the MTT assay. Data generated were used to calculate a Chou and Talalay Combination Index (CI).

The subject of series [4] is CD34+ cells from primary AML samples. The series can be described thus: Cell death in primary CD34+ AML cells. Particulars: 24 hours. It is filed as cell-based, human. The protocol:
(§2) FIG. 45. Primary CD34+AML cells are sensitive to HM-27 (MTI-101) while their normal counterparts are not. Enriched CD34+ cells from peripheral blood and bone marrow of normal individuals were treated with varying doses of HM-27 for 24 hours and then analyzed for cell death as described in the Materials and Methods.
(§3) FIG. 64. MTI-101 induces cell death in primary CD34 progenitor cells from AML patient. […] CD34-positive cells were enriched using immunomagnetic beads in primary AML samples and normal bone marrow aspirates. Cell death was measured by annexin V positivity and FACS analysis.
(§4) Cells were collected after incubation with HM-27 and analyzed for markers of cell death indicative of either apoptosis, autophagy or necrosis. BM-MNCs were isolated from marrow aspirates of AML patients and normal individuals by Ficoll-Paque centrifugation and further enriched for CD34+ cells using immunomagnetic beads. Cell death was assessed by TO-PRO-3 staining followed by FACS analysis.

The subject of series [5] is normal CD34-positive cells. Kind of series: Cell death in CD34+ cells from normal individuals. It is filed as cell-based, human. Particulars: 24 hours. The protocol:
as §2, §3, §4

Series [6] relates to H929 cells. The series can be described thus: Growth inhibition by MTT, combination index (CalcuSyn), 72 hours. It is filed as cell-based, human. Particulars: H929, 72 hours. The method, then:
FIGS. 59A-59B. H929 cells were treated with varying concentrations of MTI-101 alone or in combination with either chloroquine (FIG. 59A), or bortezomib (FIG. 59B). Following 72 hours of drug treatment growth inhibition was determined by MTT analysis. Data generated were used to calculate the combination index (CI) using CalcuSyn software developed by Chou and Talalay. MTI-101 is synergistic with bortezomib (a proteosome inhibitor) and chloroquine (an inhibitor of autophagy).

The subject of series [7] is A549 cells. Kind of series: MTT viability, combination index with MEK inhibitor. It is filed as cell-based. The method, then: as §1
The test system of series [8] is 5TGM1 cells. Kind of series: 5TGM1 murine in vivo myeloma model, survival. Also noted: species or system C57BL/KaLwRij mice. Particulars: 5TGM1 model, dosing 3× weekly for three weeks.
Description: FIG. 61B: 5TGM1 model: One million 5TGM1 cells were injected i.v. in C57BL/KaLwRij mice and allowed to engraft for 10 days prior to drug treatment. The dosing scheme for all drugs was 3× weekly for three weeks. Surrogate markers of morbidity include hind leg paralysis and/or lethargic behavior. All mice were euthanatized at day 100.
One million 5TGM1 cells were injected i.v. in C57BL/KaLwRij mice and allowed to engraft for 10 days prior to drug treatment. […] The dosing scheme for melphalan was twice (day 10 and day 14).
Series [9] has as its system phospho-ERK and CD44-associated PYK2 in NCI-H929 and U266 MM cells. Kind of series: Signal transduction in MM cells (pErk, CD44 immunoprecipitation probed for Pyk2, Src). Particulars: 5 uM H929 and 10 uM U226 cells. It is filed as cell-based. The method, then: FIGS. 55A-55D. […] NCI-H929 and U266 were treated with 5 uM and 10 uM HM-27 respectively for various time points before whole cell lysis in RIPA buffer and probed for pErk and tErk (FIGS. 55A, 55B).
FIGS. 58A-58D. […] MTI-101 activates ERK and Pyk2. Member of these pathways can be utilized as biomarkers of response. In addition, agents that target survival pathways can be used in combination with MTI-101 (data supporting this in AML).
The inventors performed a total membrane binding assay with biotin conjugated HYD1 and NeutrAvidin beads on NCI-H929 and U266 MM cells. Samples were then loaded on an SDS-PAGE gel, trypsin digested, and analyzed by Liquid Chromatography-Mass Spectrometry/Mass Spectrometry (LC-MS/MS). The adhesion receptor CD44 was determined to be among the adhesion receptors that had the most peptide match hits and was confirmed as a valid hit via Western Blot analysis using biotin as a control for non-specific binding. In order to assess the binding between CD44 and HYD1, 96-well NeutrAvidin coated plates were preincubated with biotin-HYD1 before the addition of increasing concentrations of full length recombinant human CD44. For more quantitative binding affinity analysis we produced the human globular ectodomain of CD44 comprising of amino acids 20-178. […]

Take `CCCC[C@@H]1NC(=O)CN(S(C)(=O)=O)CCNC(=O)[C@H](CCCCN)NC(=O)[C@H](CC(C)C)NC(=O)[C@H](CCCCN)NC(=O)[C@H](CC(C)C)NC(=O)[C@H](CCCCN)NC(=O)COC[C@H]2CCCN2C(=O)[C@H](Cc2c[nH]c3ccccc23)NC(=O)[C@H](C)NC(=O)[C@H](C(C)C)NC(=O)[C@H](C(C)C)NC1=O` [MTI-101] (Ms-[N(2-Aminoethyl)Gly][Nle]VVAW[dProlinol(O-CH2CO)]KLKLK; lactam 1-C): the “weight loss / signs of toxicity” value is on record as “No weight loss or any overt signs of toxicity were observed” in [1] and “no apparent toxicity” in series [1] (listed as c-HYD1). In series [2] (newly diagnosed patients), the “effect of 10 nM Bortezomib on MTI-101 activity” value is reported as “increased the activity of MTI-101 in primary patient specimens obtained from newly diagnosed patients”. In addition, the “effect of 10 μM Chloroquine on MTI-101 induced cell death” value in [2] (relapsed myeloma patients) is “increased the activity of MTI-101 induced cell death in specimens obtained from relapsed myeloma patients”. Also, the “activity in primary patient specimens” value in [2] (relapsed vs newly diagnosed) was “more active in specimens obtained from relapsed multiple myeloma (MM) patients”. In series [3], the “combination with EGFR inhibitor Erlotinib” value is reported as “Synergistic growth inhibition”. Also, the “cell death in primary AML CD34+ cells” value in [4] is listed as “Primary AML specimens are sensitive to MTI-101 induced cell death”; in series [4] (listed as HM-27) it was “CD34+ cells from primary AML samples are sensitive to HM-27; also recorded: increased potency in samples from relapsed patients compared to specimens obtained from the newly diagnosed”. In addition, the “cell death in normal CD34+ cells” value was “devoid of activity in normal CD34-positive cells” in [5] and “CD34+ cells from normal individuals are not sensitive to HM-27” in series [5] (listed as HM-27). Besides, the “combination with bortezomib” value in series [6] was “synergistic”. Further, in series [6], the “combination with chloroquine” value was “synergistic”. For the same molecule, the “combination with MEK inhibitor Selumetinib” value in series [7] is “Synergistic growth”. Also, the “survival” value in series [8] was “increases survival in the 5TGM1 murine in vivo model”. Besides, in series [9], the “phospho-ERK and CD44-associated PYK2 in MM cells” value is “induces transient phospho-ERK and CD44-associated PYK2 complex in NCI-H929 and U266 MM cells”.
